Measured values as given in publication PMC9782877 (Molecules, 2022).
Values joined by “and” are separate entries in the source; they are usually repeats but may differ in a detail not shown here. Identical values can stand only once.

How the values were obtained:
[1] = in vitro; conditions: human
[2] = Human plasma stability; type: in vitro ADME; conditions: 100 µM
Method: Finally, further studies were performed in order to investigate the stability in the presence of human plasma. All compounds were incubated at the fixed concentration of 100 µM in plasma for 24 h.
A DMSO stock solution of each compound was incubated in triplicate in the presence of human plasma and HEPES buffer (25 mM, 140 mM NaCl, pH 7.4) at the final concentration of 100 µM at 37 °C under shaking. At the selected time point of 0 and 24 h, 50 µL of the mixture was collected, treated with 1.0 mL of cold ACN, and centrifuged at 5000 rpm for 10 min. The supernatant was collected, and the amount of unmodified compound was quantified with the HLPC-UV/MS method above reported. Calculations of modified compounds were made using time zero as 100% of the unmodified compound.

[3] = Aqueous solubility in Mill-Q H2O; conditions: water, thermodynamic from solid
Method: Chromatographic separations were obtained using a Phenomenex Kinetex C18-100 Å column (150 × 4.6 mm) with 5 µm particle size and gradient elution with a binary solution; (eluent A: H2O acidified with formic acid (FA) 0.1% v/v, eluent B: ACN/MeOH 1:1 v/v) at room temperature. The analysis started with 5% of B (from t = 0 to t = 1 min), then B was increased to 95% (from t = 1 to t = 10 min), then kept at 95% (from t = 10 to t = 15 min) and finally returned to 5% of eluent A in one minute. The instrument worked in positive mode and the UV detector operated at 254 nm.
One mg of each compound was added with 1 mL of Mill-Q H2O. The samples were maintained under shaking at room temperature (RT) overnight. The suspensions were filtered using a 0.45 µm nylon filter (Acrodisc), and the amount of solubilized compound was determined with the HPLC-UV-MS method above reported. The quantification of the solubilized compound was created with the appropriate calibration curve realized with stock solutions in DMSO (0.1–100 µg/mL); the limit of detection (LOD) was quantified at 0.1 µg/mL.

[4] = Parallel artificial membrane permeability assay (PAMPA); type: in vitro ADME; conditions: pH 7.4, 5 h; for Papp at 5 h, 0.5 mM: room temperature, read-out: Apparent Permeability (Papp)
Method: The trend appreciated in terms of solubility was confirmed by results obtained from permeability studies. In fact, parallel artificial membrane permeability assay (PAMPA) underlined how the low solubility of compounds 6 and 7 was accompanied by a major tendency of these derivatives to interact with the lipidic artificial membrane where they probably remained entrapped.
In order to assess the apparent permeability of selected compounds, a stock solution in DMSO of each derivative was prepared at the final concentration of 1 mM. By diluting the stocks 1:1 v/v with phosphate buffer (PBS 25 mM, pH 7.4), donor solutions were made. To mimic the gastrointestinal (GI) phospholipidic bilayer, 10 µL of a 1% w/v dodecane solution of phosphatidylcholine (PC) was used to coat filters. The acceptor solution, made of 1:1 v/v DMSO/PBS, was added to each well (300 µL), while the donor solution (150 µL) was added to each well of the filter plate. The sandwich plates were assembled and incubated for 5 h at room temperature. At the time point, the plates were separated, and the amount of compound passed through the phospholipid bilayer was measured by UV/LC-MS. Finally, apparent permeability (Papp) and membrane retention (MR%) were calculated as previously reported by us.

[5] = tested on: SARS-CoV-2; test: microbe, parasite or virus in culture; type: cell-based; conditions: for SI, Selectivity Index (ratio between CC50 and IC50): Caco-2 cells, SARS-CoV-2; for IC50: Severe acute respiratory syndrome coronavirus 2, Caco-2, 72 h, read-out: IC50, half-maximal compound concentration inhibiting 50% of the SARS-CoV-2 replication
[6] = target: human helicase DDX3X (Homo sapiens, UniProt O00571); test: DDX3X ATPase inhibition, ADP-Glo assay; type: biochemical
Method: For the more promising compound, derivative 10a, the inhibition of the ATPase activity of the human helicase DDX3X was evaluated. Different concentrations of the compound were incubated with 1 µM of purified recombinant DDX3X and ATPase activity was determined with the ADP-glo assay.
The ATPase enzymatic activity of DDX3X was determined by the ADP-Glo kit (Promega, MD, USA). The reaction was performed in ATPase buffer (20 mM Tris–HCl pH 8, 2 mM DTT, 70 mM KCl, 2 mM MgCl2, 5% DMSO) pre-incubating 1 µM DDX3X with different concentrations of inhibitor for 10 min at 25 °C. ATPase reaction started with the addition of 1 mM ATP. After 30 min of incubation at 25 °C, the assay was conducted following the manufacturer’s instructions. The ATPase enzymatic activity was analyzed using a 384-wells plate and the GloMax Discover Microplate Reader (Promega, MD, USA) and expressed as a percentage of inhibition calculated from the light units obtained.

[7] = tested on: HIV-1 wild-type reference strain NL4-3; test: Anti-HIV-1 BiCycle Assay (H9 cells, then TZM-bl reporter cells); type: cell-based; conditions: Human immunodeficiency virus 1, NL43, H9, read-out: IC50, half-maximal compound concentration inhibiting the 50% of HIV-1 replication
[8] = tested on: peripheral blood mononuclear cells (PBMC); parameters: method as in PMID 21698775; conditions: read-out: CC50, cytotoxicity; cited from earlier work
[9] = in vitro; conditions: human; remark: listed apart in the source
[10] = tested on: HIV; parameters: method as in PMID 21698775; conditions: PBMC; read-out: EC50, antiretroviral effect; cited from earlier work

Chain of human helicase DDX3X (O00571 whole entry): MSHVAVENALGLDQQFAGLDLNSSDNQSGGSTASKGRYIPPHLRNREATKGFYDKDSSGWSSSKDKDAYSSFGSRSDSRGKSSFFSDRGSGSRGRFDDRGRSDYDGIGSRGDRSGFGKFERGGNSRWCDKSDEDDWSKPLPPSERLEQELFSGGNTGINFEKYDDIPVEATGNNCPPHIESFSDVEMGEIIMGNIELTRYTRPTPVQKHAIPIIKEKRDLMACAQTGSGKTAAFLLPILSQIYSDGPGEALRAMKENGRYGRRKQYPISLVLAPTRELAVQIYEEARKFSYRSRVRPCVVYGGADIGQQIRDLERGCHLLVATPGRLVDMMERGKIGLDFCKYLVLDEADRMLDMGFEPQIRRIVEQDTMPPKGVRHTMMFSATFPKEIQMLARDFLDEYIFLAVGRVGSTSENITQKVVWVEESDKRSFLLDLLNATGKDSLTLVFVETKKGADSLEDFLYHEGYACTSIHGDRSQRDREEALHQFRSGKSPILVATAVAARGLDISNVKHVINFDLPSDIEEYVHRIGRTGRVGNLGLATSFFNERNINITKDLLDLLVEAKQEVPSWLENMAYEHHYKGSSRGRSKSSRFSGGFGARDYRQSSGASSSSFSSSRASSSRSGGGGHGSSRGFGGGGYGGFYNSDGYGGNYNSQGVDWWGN

Row | SMILES | CC50 [1] [µM] | Plasma Stability % ± SD ([2]; 24 h, 37 °C) [%] | Plasma Stability % ± SD ([2]; time 0 h (set as 100%)) [%] | solubility [3] | Membrane retention (MR) [4] [%] | Papp at 5 h, 0.5 mM [4] [×10⁻⁶ cm/s] | SI, Selectivity Index (ratio between CC50 and IC50) [5] | IC50 [5] [µM] | IC50 [6] [µM] | IC50 [7] [µM] | CC50 [8] [µM] | CC50 [9] [µM] | EC50 [10] [µM]
1 | Cc1cccc(/C=N/Nc2nc(N3CCOCC3)nc(N3CCOCC3)n2)c1 [10c] | 74 | 99.52 ± 3.45 | 100.00 ± 0.16 | 4.5 µg/mL and 11.7 µM | 4.9 | 9.78 | – | – | – | – | – | – | –
2 | Oc1ccccc1/C=N/Nc1nc(N2CCOCC2)nc(N2CCOCC2)n1 [10a] | – | 98.48 ± 4.02 | 100.00 ± 0.28 | 3.23 µg/mL and 8.51 µM | 4.3 | 7.89 | >33.1 | 12.1 | 6.6 | – | – | – | –
3 | CC(=O)Nc1ccc(/C=N/Nc2nc(N3CCOCC3)nc(N3CCOCC3)n2)cc1 [10b] | – | 98.41 ± 4.69 | 100.00 ± 0.24 | 3.46 µg/mL and 8.13 µM | 9.8 | 9.7 | – | – | – | – | – | – | –
4 | Cc1nnc(C(=O)NC(C)(C)c2nc(C(=O)NCc3ccc(F)cc3)c(O)c(=O)n2C)o1 [Raltegravir, reference compound] | > 100 | – | – | – | – | – | – | – | – | 0.0028 ± 0.0017 | – | – | –
5 | Oc1ccccc1C=NNc1nc(Nc2ccc(F)cc2)nc(N2CCOCC2)n1 [compound 6] | – | 98.78 ± 4.05 | 100.00 ± 0.19 | < 0.1 µg/mL | 28.7 | 4.74 | – | – | – | – | 10 | 3 | 2.5
6 | CCC(CC)COC(=O)[C@H](C)N[P@](=O)(OC[C@H]1O[C@@](C#N)(c2ccc3c(N)ncnn23)[C@H](O)[C@@H]1O)Oc1ccccc1 [Remdesivir, reference compound] | – | – | – | – | – | – | 1356 | 0.07 ± 0.04 | – | – | – | 94.9 | –
7 | Oc1ccccc1C=NNc1nc(Nc2ccc(F)cc2)nc(Nc2ccc(F)cc2)n1 [compound 7] | – | 99.56 ± 3.78 | 100.00 ± 0.28 | < 0.1 µg/mL | 15.5 | 4.58 | – | – | – | – | 8 | 0.8 | 2
